The values that follow come from patent US5430023A, “Tripeptide antithrombotic agents” (Eli Lilly and Company, priority 1993, dated 1995).

Several values for one entry are separate records, joined by “and”; a condition that tells them apart may be missing. Equal values may be shown once. Where a name gives a salt, the structure may show the parent alone. Square brackets hold non-standard residues; d marks the D form. Peptide text beside a SMILES is read from it. * marks the point of attachment. dPhg = N[C@@H](C(=O)O)c1ccccc1; Boc = CC(C)(C)OC(=O)*

In assay [1] the target is T1, bovine thrombin (Bos taurus, UniProt P00735).
T1 construct: 25 μl of bovine thrombin solution (0.21 mg/ml of thrombostat powder); purchased thrombostat powder
As to the kind of experiment: Thrombin time in buffer (fibrinogen instead of plasma). The assay is classed as biochemical. The conditions noted are these: Buffer (pH 7.5). Here is the method: (§1) The anticoagulant activity of the compounds of the invention has been determined in standard tests. The following Table 2 presents the data obtained with representative compounds of the invention in tests used to determine prothrombin time, thrombin time and activated partial thromboplastin time (APTT). The numerical values in the table are the concentrations of the test compounds (ng/ml) required to prolong coagulation by 2-fold in the three tests. The thrombin time evaluation was carried out in plasma and separately determined in a buffer system at pH 7.5.
(§2) The data presented in Table 2 were obtained using a CoaScreener instrument from Tecan, Inc. in the assay protocols listed below.
In the Thrombin Time determined in pH 7.4 buffer fibrinogen was used instead of plasma.

Assay [2] concerns the target T1, bovine thrombin. As to the kind of experiment: Plasma coagulation assay: thrombin time. In kind it is biochemical. How it is done: as §1, §2
50 μl bovine thrombin (2 NIH

In assay [3] the target is T1, bovine thrombin. As to the kind of experiment: Inhibition of thrombin amidase activity (chromogenic substrate), bovine thrombin. The assay is classed as biochemical. The conditions noted are these: apparent equilibrium constant inhibitor-thrombin, mean over a range of concentrations. Here is the method:
The data in the table were obtained in an assay in which thrombin hydrolyzes the chromogenic substrate, N-benzoyl-D-phenylalanyl-L-valyl-L-arginyl-p-nitroanilide.
The assay was carried out in 50 μl buffer (0.03M Tris, 0.15M NaCl, pH 7.4) with 25 μl of bovine thrombin solution (0.21 mg/ml of thrombostat powder in 0.06M Tris, 0.3M NaCl, pH 7.4) and 150 μl of an aqueous solution of the chromogenic substrate at a concentration of 0.25 mg/ml. Solutions of test compound (25 μl) at various concentrations were added. […] Standard curves were constructed by plotting free thrombin concentration against hydrolysis rate. […] The amount of free inhibitor in each assay was calculated by subtracting the number of moles of bound thrombin from the number of moles of added inhibitor (test compound).
(§3) Kass was calculated for a range of concentrations of compounds and the mean value is reported in units of liter per mole.

In assay [4] the test system is plasma coagulation (thromboplastin). Put plainly: Plasma coagulation assay: prothrombin time. The assay is classed as biochemical. How it is done: The numerical values in the table are the concentrations of the test compounds (ng/ml) required to prolong coagulation by 2-fold in the three tests. The thrombin time evaluation was carried out in plasma and separately determined in a buffer system at pH 7.5.
as §2
50 μl thromboplastin (Dade)

For assay [5], the system named is arterial thrombosis in the carotid artery. Put plainly: Ferric chloride induced arterial thrombosis in the carotid artery of the rat. The assay is classed as in vivo. To be noted: infusion from 15 min before to 60 min after FeCl3, NA = Not active at 4 mg/kg/h or at 7 mg/kg/h, the highest doses tested. Here is the method: The antithrombotic activity of representative compounds of the invention was determined in in vivo tests carried out in the rat. The test employed induced arterial thrombosis in the carotid artery of the rat and measured the infusion dose of test compound required to maintain blood flow for fifty minutes past the time of occlusion. The test was performed as follows.
Arterial thrombosis was induced in the rat by injury of the carotid artery. Topical application of a ferric chloride solution was used to injure the vessel. Male Sprague-Dawley rats (375-450 g) were anesthetized with xylazine (20 mg/kg, s.c.) followed by ketamine HCl (100 mg/kg, s.c.). Animals were laid on a water blanket in which the circulated water was maintained at 37° C. The carotid artery was approached through a midline cervical incision. Careful blunt dissection was used to expose and isolate the vessel from the carotid sheath. A silk suture was pulled underneath the artery to lift the vessel to provide clearance to insert a thermocouple underneath it. […] Small forceps were used to dip discs (3 mm dia) of Whatman No. 1 filter paper into a FeCl3 solution (35%). The discs were cut to equal size using sharpened stainless steel tubing (3 mm i.d.) chucked in a drill press. A saturated disc was placed on each carotid artery above the thermocouple. The time between FeCl3 application and the time at which temperature decreased abruptly was recorded as time to occlusion (TTO) of the vessel. The average time required for both vessels to occlude was used to represent TTO for each animal.
Test compounds were dissolved in isotonic saline. […]
The association between vessel occlusion and the abrupt temperature decrease was established by simultaneously recording the temperature and blood flow on the same recorder. […] Baseline temperature and flow velocity (determined with a Directional Pulsed Doppler Flowmeter, Model 545-C, University of Iowa Bioengineering) were recorded before application of 35% ferric chloride. […]

Assay [6] deals with plasma coagulation (Actin, CaCl2). As to the kind of experiment: Plasma coagulation assay: APTT (activated partial thromboplastin time). The assay is classed as biochemical. Here is the method: as §1, §2
For the next assay, the target named is T2, human thrombin (Homo sapiens, UniProt P00734).
T2 construct: purchased Inzyme Research Laboratories of South Bend, Ind
Put plainly: Inhibition of thrombin amidase activity (chromogenic substrate), human thrombin. The conditions noted are these: human thrombin (footnote 2). The assay is classed as biochemical. Here is the method: The compounds provided by the invention (formula 1) inhibit the action of thrombin in man and animals. […] The following Table 1 lists the apparent equilibrium constant (Kass) for interaction between the test compound (inhibitor) and thrombin. The data in the table were obtained in an assay in which thrombin hydrolyzes the chromogenic substrate, N-benzoyl-D-phenylalanyl-L-valyl-L-arginyl-p-nitroanilide.
The assay was carried out in 50 μl buffer (0.03M Tris, 0.15M NaCl, pH 7.4) with 25 μl of bovine thrombin solution (0.21 mg/ml of thrombostat powder in 0.06M Tris, 0.3M NaCl, pH 7.4) and 150 μl of an aqueous solution of the chromogenic substrate at a concentration of 0.25 mg/ml. Solutions of test compound (25 μl) at various concentrations were added. Rates of hydrolysis of the substrate were measured by monitoring the reactions at 405 nm for the release of p-nitroaniline. […] The bound thrombin (bound to test compound) was calculated by subtracting the amount of free thrombin observed in each assay from the known initial amount of thrombin used in the assay. The amount of free inhibitor in each assay was calculated by subtracting the number of moles of bound thrombin from the number of moles of added inhibitor (test compound). […]
as §3

Regarding `CC(C)(C)OC(=O)NC(C(=O)N1CCC[C@H]1C(=O)N[C@H](C=O)CCCNC(=N)N)c1cccc2ccccc12` (mixture of isomers) [Boc-DL-1-naphthylglycyl], the “Thrombin Time: concentration required to prolong coagulation by 2fold” value amounted to 112 ng/mL on bovine thrombin [1] and 320 ng/mL on bovine thrombin [2]. In addition, the “Thrombin Amidase Kass × 10^6” value at bovine thrombin [3] is given as 18 × 10^6 1/mole. Moreover, the “Prothrombin Time: concentration required to prolong coagulation by 2fold” value (“Prothrombin Time … by 2fold” for short) in assay [4] is 1136 ng/mL. Further, in assay [5], the “ED50: infusion dose required to maintain blood flow for 50 min” value (from here on “ED50: infusion dose required”) is 5.5 mg/kg/h. In addition, the “APTT: concentration required to prolong coagulation by 2fold” value (“APTT: concentration required … by 2fold” for short) in assay [6] was determined as 2272 ng/mL.
For `CC(=O)O.CC(=O)O.CC(C)(C)OC(=O)N[C@@H](C(=O)N1CCC[C@H]1C(=O)N[C@H](C=O)CCCNC(=N)N)c1cccc2ccccc12` [Boc-D-1-naphthylglycyl, N-Boc-D-1-naphthylglycyl-Pro-Arg-H diacetate], the “Thrombin Time: concentration required to prolong coagulation by 2fold” value came out at 105 ng/mL on bovine thrombin [1] and 230 ng/mL on bovine thrombin [2]. The “Thrombin Amidase Kass × 10^6” value on bovine thrombin [3] is given as 52 × 10^6 1/mole. For the same molecule, the “Prothrombin Time … by 2fold” value in assay [4] came out at 1225 ng/mL. For the same molecule, the “ED50: infusion dose required” value in assay [5] is given as 6.4 mg/kg/h. Also, the “APTT: concentration required … by 2fold” value in assay [6] turned out to be 3100 ng/mL.
For the molecule `CC(C)(C)OC(=O)N[C@@H](C(=O)N1CCC[C@H]1C(=O)N[C@H](C=O)CCCNC(=N)N)c1ccccc1` [Boc-D-phenylglycyl, N-(t-Butyloxycarbonyl)-D-phenylglycyl-L-Prolyl-L-Arginine aldehyde (Boc-D-Phg-Pro-Arg-H) diacetate salt] (Boc-[dPhg]-Pro-Arg-aldehyde), the “Thrombin Time: concentration required to prolong coagulation by 2fold” value came to 118 ng/mL at bovine thrombin [1] and 110 ng/mL at bovine thrombin [2]. On bovine thrombin [3] (diacetate salt), the “Thrombin Amidase Kass × 10^6” value was 88 × 10^6 1/mole and 73 × 10^6 1/mole. For the same molecule, the “Prothrombin Time … by 2fold” value in assay [4] amounted to 667 ng/mL. Further, the “ED50: infusion dose required” value in assay [5] came out at 2.9 mg/kg/h. Besides, in assay [6], the “APTT: concentration required … by 2fold” value amounted to 1169 ng/mL.
With `N=C(N)NCCCC(C=O)NC(=O)C1CCCN1C(=O)C1CC2CCCCC2CN1` [D-3-(4aS, 8aS)-Piq-(L)-Pro-(L)-Arg-H], the “Thrombin Amidase Kass × 10^6” value at human thrombin is reported as 56 × 10^6 1/mole.
On the same count and under the same terms, as for D-3 -(4aR, 8aR)-Piq-(L)-Pro-(L)-Arg-H, the figure is 214 × 10^6 1/mole.
